Assay results: patent US3966734A, “Method for the purification of 6-methoxy-1-phenazinol 5,10-dioxide” (Hoffmann-La Roche Inc., priority 1975, dated 1976)

Columns and labels:
[1] = test system: S. agalactiae; experiment: In vivo anti-microbial activity against S. agalactiae
Description: (§1) For example, the anti-microbial activity of calcium myxin dihydrate, prepared by the method of this invention, is evaluated and compared to that of myxin itself both in vivo against 4 strains of bacteria and in vitro against yeast and fungus infections.

[2] = test system: S. aureus; experiment: In vivo anti-microbial activity against S. aureus
Description: as §1

[3] = test system: E. coli; experiment: In vivo anti-microbial activity against E. coli
Description: as §1

[4] = test system: P. aeruginosa; experiment: In vivo anti-microbial activity against P. aeruginosa
Description: as §1

[5] = test system: C. albicans; experiment: In vitro anti-microbial activity (minimum inhibitory concentration) against C. albicans; assay type: cell-based
Description: as §1

[6] = test system: M. canis; experiment: In vitro anti-microbial activity (minimum inhibitory concentration) against M. canis; assay type: cell-based
Description: as §1

[7] = test system: gram positive and gram negative bacteria, fungi, protozoa and helminths; experiment: Anti-microbial activity in in vitro tests and in vivo topical infections (general statement)
[8] = Solubility in water; assay type: physicochemical

| Compound | ED50' (in vivo) [1] [µg/mL] | ED50' (in vivo) [2] [µg/mL] | ED50' (in vivo) [3] [µg/mL] | ED50' (in vivo) [4] [µg/mL] | Minimum Inhibitory Concentration, cidal ([5]; cidal) [µg/mL] | Minimum Inhibitory Concentration, static ([5]; static) [µg/mL] | Minimum Inhibitory Concentration, cidal ([6]; cidal) [µg/mL] | Minimum Inhibitory Concentration, static ([6]; static) [µg/mL] | anti-microbial activity [7] | solubility in water [8] |
| --- | --- | --- | --- | --- | --- | --- | --- | --- | --- | --- |
| 6-methoxy-1-phenazinol 5,10-dioxide, calcium dihydrate complex [Calcium Myxin Dihydrate] | < 4 | < 20 | 60 | 20 | < 0.8 | < 0.8 | < 0.8 | < 0.8 |  |  |
| COc1cccc2c1[n+]([O-])c1cccc(O)c1[n+]2[O-] [Myxin, 6-methoxy-1-phenazinol 5,10-dioxide] |  |  |  |  |  |  |  |  | high degree and wide spectrum of anti-microbial activity | very slightly soluble in water |
